Columns and labels:
[1] = molecular target: SRSF protein kinase 1 (Homo sapiens) (UniProt Q96SB4); assay: Inhibition of human SRPK1 assessed as residual activity at 1 uM relative to control
[2] = molecular target: RAC-beta serine/threonine-protein kinase (Homo sapiens) (UniProt P31751); assay: Inhibition of human PKBbeta assessed as residual activity at 1 uM relative to control
[3] = molecular target: Ephrin type-A receptor 2 (Homo sapiens) (UniProt P29317); assay: Inhibition of human EPHA2 assessed as residual activity at 1 uM relative to control
Ephrin type-A receptor 2 (Homo sapiens), sequence (P29317 whole entry): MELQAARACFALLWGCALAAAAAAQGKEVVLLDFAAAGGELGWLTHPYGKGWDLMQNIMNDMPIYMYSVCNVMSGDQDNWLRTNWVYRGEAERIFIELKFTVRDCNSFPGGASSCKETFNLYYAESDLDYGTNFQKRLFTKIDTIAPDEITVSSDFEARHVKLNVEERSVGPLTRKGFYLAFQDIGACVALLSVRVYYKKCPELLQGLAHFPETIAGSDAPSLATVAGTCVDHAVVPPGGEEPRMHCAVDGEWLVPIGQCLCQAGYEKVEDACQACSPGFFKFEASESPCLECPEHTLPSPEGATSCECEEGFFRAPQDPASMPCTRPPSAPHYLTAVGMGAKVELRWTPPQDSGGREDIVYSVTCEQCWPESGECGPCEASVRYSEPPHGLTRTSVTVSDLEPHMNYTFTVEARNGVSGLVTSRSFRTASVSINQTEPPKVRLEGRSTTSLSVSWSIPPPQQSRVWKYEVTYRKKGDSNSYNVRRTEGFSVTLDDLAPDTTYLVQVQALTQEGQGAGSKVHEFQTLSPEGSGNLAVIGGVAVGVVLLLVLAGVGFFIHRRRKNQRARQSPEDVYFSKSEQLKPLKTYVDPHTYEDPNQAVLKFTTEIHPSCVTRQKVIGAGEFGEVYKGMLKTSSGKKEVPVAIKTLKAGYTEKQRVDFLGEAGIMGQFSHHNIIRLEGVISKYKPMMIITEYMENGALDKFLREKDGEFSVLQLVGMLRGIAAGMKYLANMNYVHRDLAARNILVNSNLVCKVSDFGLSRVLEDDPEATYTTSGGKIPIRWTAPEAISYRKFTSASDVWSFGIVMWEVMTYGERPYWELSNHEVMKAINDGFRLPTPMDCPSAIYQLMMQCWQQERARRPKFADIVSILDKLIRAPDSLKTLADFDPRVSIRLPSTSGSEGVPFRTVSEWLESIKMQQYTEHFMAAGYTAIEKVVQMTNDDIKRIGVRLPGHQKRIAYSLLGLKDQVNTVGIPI

[4] = molecular target: T1, Serine/threonine-protein kinase Sgk1 (Homo sapiens) (UniProt O00141); assay: Inhibition of human SGK1 assessed as residual activity at 1 uM relative to control
T1 sequence (whole entry): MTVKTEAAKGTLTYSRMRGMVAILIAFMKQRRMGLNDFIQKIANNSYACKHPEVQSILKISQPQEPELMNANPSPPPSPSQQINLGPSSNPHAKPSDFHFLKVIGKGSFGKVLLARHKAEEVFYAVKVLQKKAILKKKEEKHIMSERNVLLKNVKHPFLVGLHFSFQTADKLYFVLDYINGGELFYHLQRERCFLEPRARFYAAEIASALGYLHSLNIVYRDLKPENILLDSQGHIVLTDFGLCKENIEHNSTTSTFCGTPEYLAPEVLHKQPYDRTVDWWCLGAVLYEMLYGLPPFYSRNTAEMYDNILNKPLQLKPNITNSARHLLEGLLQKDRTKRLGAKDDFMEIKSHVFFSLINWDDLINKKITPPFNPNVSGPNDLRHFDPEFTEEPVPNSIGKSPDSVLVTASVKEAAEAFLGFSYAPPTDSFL

[5] = molecular target: Insulin receptor-related protein (Homo sapiens) (UniProt P14616); assay: Inhibition of human IRR assessed as residual activity at 1 uM relative to control
Insulin receptor-related protein (Homo sapiens), sequence (P14616 27-742 limits assumed): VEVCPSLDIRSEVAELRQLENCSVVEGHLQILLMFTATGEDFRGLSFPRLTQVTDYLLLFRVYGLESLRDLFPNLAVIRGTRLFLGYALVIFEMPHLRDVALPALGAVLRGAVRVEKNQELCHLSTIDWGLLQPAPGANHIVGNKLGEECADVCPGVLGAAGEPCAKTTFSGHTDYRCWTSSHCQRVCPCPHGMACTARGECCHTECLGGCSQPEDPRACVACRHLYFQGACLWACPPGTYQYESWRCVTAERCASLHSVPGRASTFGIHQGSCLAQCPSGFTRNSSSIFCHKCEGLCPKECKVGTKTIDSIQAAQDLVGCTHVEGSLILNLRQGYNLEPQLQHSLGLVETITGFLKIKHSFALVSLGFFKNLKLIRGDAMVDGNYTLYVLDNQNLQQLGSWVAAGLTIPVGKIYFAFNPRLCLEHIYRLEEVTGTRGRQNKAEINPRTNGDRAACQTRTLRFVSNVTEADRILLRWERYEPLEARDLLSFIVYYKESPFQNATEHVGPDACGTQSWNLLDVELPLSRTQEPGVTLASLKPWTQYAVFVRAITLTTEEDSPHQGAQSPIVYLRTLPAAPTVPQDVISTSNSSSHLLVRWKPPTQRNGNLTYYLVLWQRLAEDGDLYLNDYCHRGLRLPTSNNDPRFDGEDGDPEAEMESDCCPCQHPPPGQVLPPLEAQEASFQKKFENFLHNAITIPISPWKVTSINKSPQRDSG
Insulin receptor-related protein (Homo sapiens), sequence (P14616 747-1297 limits assumed): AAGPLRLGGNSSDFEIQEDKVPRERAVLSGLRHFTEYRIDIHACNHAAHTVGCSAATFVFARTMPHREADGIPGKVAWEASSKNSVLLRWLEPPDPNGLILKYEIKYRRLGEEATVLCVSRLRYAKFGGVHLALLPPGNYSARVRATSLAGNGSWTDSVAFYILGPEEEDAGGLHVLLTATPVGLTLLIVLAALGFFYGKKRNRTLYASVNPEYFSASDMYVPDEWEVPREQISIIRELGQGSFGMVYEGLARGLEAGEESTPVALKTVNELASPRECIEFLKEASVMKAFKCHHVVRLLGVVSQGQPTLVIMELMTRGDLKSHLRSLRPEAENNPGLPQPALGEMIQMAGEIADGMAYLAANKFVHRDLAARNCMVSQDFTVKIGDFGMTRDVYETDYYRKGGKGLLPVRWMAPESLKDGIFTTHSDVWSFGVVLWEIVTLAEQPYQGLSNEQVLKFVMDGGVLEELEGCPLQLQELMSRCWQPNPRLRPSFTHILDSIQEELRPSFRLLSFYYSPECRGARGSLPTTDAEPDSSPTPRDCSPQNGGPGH

[6] = molecular target: Homeodomain-interacting protein kinase 2 (Homo sapiens) (UniProt Q9H2X6); assay: Inhibition of human HIPK2 assessed as residual activity at 1 uM relative to control
Homeodomain-interacting protein kinase 2 (Homo sapiens), sequence (Q9H2X6 whole entry, looked up): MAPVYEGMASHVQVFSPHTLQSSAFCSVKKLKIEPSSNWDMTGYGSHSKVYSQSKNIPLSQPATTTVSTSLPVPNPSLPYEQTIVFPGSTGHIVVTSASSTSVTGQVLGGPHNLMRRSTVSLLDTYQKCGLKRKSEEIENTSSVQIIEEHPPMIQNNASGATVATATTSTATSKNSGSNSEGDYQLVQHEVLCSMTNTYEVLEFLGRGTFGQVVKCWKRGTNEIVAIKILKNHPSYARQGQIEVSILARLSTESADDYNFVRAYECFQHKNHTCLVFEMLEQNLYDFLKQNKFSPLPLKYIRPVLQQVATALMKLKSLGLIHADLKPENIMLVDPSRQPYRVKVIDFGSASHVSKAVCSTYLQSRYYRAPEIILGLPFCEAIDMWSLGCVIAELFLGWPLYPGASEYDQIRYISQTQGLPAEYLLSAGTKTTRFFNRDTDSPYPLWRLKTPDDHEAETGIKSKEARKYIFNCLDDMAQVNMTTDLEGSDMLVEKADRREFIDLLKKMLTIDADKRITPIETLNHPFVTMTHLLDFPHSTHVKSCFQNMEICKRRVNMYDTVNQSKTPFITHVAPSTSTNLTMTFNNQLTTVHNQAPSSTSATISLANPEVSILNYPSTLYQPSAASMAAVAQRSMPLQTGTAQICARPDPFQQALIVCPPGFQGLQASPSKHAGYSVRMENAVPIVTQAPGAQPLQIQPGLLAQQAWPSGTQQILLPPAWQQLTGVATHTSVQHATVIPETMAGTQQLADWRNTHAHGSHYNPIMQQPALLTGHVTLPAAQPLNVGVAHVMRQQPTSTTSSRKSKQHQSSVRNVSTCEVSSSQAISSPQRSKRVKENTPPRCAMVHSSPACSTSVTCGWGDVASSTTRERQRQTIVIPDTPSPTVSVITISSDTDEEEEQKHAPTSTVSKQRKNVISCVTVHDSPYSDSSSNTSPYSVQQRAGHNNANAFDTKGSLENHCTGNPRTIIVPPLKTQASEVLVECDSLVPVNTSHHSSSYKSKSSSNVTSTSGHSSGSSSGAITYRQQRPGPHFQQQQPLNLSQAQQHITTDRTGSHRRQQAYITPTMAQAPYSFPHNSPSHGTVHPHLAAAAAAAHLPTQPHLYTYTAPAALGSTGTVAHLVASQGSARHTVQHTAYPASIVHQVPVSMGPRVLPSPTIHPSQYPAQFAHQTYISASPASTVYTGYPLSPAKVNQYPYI

[7] = molecular target: Tyrosine-protein kinase BTK (Homo sapiens) (UniProt Q06187); assay: Inhibition of human BTK assessed as residual activity at 1 uM relative to control
[8] = molecular target: Proto-oncogene tyrosine-protein kinase Src (Homo sapiens) (UniProt P12931); assay: Inhibition of human SRC assessed as residual activity at 10 uM relative to control
[9] = molecular target: Maternal embryonic leucine zipper kinase (Homo sapiens) (UniProt Q14680); assay: Inhibition of human MELK assessed as residual activity at 10 uM relative to control
[10] = molecular target: T2, Inhibitor of nuclear factor kappa-B kinase subunit beta (Homo sapiens) (UniProt O14920); assay: Inhibition of human IKKbeta assessed as residual activity at 10 uM relative to control
T2 sequence (whole entry): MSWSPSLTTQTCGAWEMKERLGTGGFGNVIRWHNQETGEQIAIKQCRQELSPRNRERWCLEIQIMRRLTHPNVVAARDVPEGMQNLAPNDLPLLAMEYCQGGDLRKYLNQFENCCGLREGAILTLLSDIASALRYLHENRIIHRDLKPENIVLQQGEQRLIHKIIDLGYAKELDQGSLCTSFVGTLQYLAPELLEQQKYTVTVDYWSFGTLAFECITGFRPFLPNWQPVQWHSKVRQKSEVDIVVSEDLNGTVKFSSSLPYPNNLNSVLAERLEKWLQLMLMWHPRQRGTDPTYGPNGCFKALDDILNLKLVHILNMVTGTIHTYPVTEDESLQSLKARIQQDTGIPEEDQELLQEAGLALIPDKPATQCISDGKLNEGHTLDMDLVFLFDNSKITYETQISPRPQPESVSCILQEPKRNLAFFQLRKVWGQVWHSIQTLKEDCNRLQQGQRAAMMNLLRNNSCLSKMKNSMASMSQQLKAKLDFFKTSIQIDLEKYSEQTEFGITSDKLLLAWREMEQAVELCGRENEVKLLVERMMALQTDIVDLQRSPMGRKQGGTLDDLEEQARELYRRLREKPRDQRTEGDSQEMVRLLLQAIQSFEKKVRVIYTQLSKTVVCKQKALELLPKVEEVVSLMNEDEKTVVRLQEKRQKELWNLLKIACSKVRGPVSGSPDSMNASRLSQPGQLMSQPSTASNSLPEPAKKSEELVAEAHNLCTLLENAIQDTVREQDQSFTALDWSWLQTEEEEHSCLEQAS

[11] = molecular target: Tyrosine-protein kinase CSK (Homo sapiens) (UniProt P41240); assay: Inhibition of human CSK assessed as residual activity at 10 uM relative to control
Tyrosine-protein kinase CSK (Homo sapiens), sequence (P41240 2-450 limits assumed): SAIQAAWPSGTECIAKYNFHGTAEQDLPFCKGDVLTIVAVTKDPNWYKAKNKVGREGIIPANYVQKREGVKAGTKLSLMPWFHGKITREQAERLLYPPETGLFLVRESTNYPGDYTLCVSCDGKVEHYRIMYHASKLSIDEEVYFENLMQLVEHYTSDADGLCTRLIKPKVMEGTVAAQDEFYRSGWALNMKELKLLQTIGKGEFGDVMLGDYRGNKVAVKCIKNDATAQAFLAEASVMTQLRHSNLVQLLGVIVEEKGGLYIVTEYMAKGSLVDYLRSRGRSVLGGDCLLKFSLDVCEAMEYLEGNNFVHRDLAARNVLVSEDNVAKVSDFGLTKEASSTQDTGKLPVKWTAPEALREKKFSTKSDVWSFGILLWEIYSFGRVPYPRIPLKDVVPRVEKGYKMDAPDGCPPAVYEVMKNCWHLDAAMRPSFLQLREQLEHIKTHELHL

[12] = molecular target: Dual specificity tyrosine-phosphorylation-regulated kinase 1A (Rattus norvegicus) (UniProt Q63470); assay: Inhibition of rat DYRK1alpha assessed as residual activity at 10 uM relative to control
[13] = molecular target: Tyrosine-protein kinase BTK (Homo sapiens) (UniProt Q06187); assay: Inhibition of human BTK assessed as residual activity at 10 uM relative to control
A-375 = assay: Cell cycle arrest in human A375 cells assessed as accumulation at G2-M phase at 80 uM after 48 hrs by FACS flow cytometric analysis (reference value: 17.3%); format: functional
[14] = molecular target: MAP kinase-activated protein kinase 2 (Homo sapiens) (UniProt P49137); assay: Inhibition of human MAPKAPK2 assessed as residual activity at 1 uM relative to control
Homo sapiens = species: Homo sapiens; assay: Inhibition of human VEGFR assessed as residual activity at 1 uM relative to control
[15] = molecular target: T3, Mitogen-activated protein kinase 15 (Homo sapiens) (UniProt Q8TD08); assay: Inhibition of human ERK8 assessed as residual activity at 1 uM relative to control
T3 sequence (whole entry): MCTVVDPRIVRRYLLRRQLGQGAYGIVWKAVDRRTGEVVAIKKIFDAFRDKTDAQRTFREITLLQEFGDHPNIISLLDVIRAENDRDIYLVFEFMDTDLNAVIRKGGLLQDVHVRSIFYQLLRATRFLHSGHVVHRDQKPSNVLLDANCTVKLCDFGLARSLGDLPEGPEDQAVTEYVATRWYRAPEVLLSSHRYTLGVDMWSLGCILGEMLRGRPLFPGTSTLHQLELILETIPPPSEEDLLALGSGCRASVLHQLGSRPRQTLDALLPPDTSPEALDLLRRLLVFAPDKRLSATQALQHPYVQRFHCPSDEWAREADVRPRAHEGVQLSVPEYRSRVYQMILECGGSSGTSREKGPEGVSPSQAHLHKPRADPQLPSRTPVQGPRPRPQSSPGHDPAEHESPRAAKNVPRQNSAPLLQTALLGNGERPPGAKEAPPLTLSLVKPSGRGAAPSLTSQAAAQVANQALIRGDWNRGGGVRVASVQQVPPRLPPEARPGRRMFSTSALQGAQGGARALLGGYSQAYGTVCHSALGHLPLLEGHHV

[16] = molecular target: T3, Mitogen-activated protein kinase 15 (Homo sapiens); assay: Inhibition of human ERK8 assessed as residual activity at 10 uM relative to control

RAC-beta serine/threonine-protein kinase (Homo sapiens), sequence (P31751 whole entry): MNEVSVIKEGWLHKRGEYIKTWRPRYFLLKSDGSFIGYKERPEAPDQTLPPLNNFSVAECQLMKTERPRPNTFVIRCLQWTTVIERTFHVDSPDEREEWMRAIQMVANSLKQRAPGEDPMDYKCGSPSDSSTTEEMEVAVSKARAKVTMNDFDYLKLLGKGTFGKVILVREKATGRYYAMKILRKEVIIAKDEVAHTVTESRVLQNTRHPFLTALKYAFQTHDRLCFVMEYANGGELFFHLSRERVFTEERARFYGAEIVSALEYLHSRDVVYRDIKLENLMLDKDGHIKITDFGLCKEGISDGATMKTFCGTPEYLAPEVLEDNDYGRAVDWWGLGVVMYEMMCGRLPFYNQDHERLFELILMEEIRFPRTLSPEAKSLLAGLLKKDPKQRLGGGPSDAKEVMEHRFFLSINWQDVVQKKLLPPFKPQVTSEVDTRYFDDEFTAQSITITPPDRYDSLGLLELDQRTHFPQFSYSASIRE
SRSF protein kinase 1 (Homo sapiens), sequence (Q96SB4 whole entry): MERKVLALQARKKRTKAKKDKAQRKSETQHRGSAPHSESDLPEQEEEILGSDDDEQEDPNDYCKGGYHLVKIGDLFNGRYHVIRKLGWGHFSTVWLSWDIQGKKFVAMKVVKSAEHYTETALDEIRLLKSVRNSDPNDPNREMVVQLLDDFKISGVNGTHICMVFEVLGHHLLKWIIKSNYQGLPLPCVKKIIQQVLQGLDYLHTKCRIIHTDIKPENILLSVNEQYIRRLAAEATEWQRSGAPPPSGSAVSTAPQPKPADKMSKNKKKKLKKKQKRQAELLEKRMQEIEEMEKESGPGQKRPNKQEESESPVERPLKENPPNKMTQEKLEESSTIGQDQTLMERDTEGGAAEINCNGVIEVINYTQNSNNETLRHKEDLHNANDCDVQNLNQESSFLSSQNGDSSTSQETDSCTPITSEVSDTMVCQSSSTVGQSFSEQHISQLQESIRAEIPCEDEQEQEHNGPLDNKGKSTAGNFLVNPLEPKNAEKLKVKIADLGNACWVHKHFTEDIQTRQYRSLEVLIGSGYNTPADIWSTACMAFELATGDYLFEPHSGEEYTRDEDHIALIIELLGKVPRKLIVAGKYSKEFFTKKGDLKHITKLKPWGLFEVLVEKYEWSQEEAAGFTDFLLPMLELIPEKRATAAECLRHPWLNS

SMILES | Activity [1] | Activity [2] | Activity [3] | Activity [4] | Activity [5] | Activity [6] | Activity [7] | Activity [8] | Activity [9] | Activity [10] | Activity [11] | Activity [12] | Activity [13] | Activity (A-375) | Activity [14] | Activity (Homo sapiens) | Activity [15] | Activity [16]
CCCC(=O)Nc1n[nH]c2ncc(-c3cccnc3)cc12 | 93% | 94% | 86% | 108% | 61% | 72% | 85% | 72% | 64% | 90% | 80% | 2% | 69% | – | – | – | – | –
CC(=O)Nc1nccc(-c2c(-c3ccccc3)noc2C)n1 | 87.7% | 89.7% | 91.2% | 57.5% | 83.2% | 98.9% | 103% | 91.9% | 106% | 80.4% | 104% | 102% | 99.7% | 16.2% | 94.7% | 79.5% | 91.1% | 89.5%
CC(=O)Nc1cccc(-c2cnc3[nH]nc(C)c3c2)c1 | 95.9% | 94.6% | 101% | 105% | 73.9% | 72% | 93.2% | 23.8% | 38.9% | 72% | 48% | 39.9% | 16.5% | 37.3% | 63.8% | 54.5% | 45.3% | 15.8%

Reference: ChEMBL document CHEMBL2429821, “A Casein kinase 1/Checkpoint kinase 1 pyrazolo-pyridine protein kinase inhibitor as novel activator of the p53 pathway” (Bioorg Med Chem Lett, 2013)
